Test results from patent US20260092071A1, “COMPOUNDS AND COMPOSITIONS AS SMARCA2/4 DEGRADERS AND USES THEREOF” (REGENTS OF THE UNIVERSITY OF MICHIGAN, priority 2022, published 2026).

Tests used:
SMARCA4 = SMARCA4 (Homo sapiens, UniProt P51532); experiment: HiBit assay in engineered HT1080 CRISPR knock-in cell, 6 hrs (B series), SMARCA4; format: cell-based; details: 6 hrs incubation; for DC50: read-out: SMARC A4 HT1080 HiBit DC50; for Dmax: HT-1080, HT1080 CRISPR knock-in cells, read-out: SMARC A4 HT1080 HiBit Dmax(%)
Sequence of SMARCA4 (P51532 whole entry): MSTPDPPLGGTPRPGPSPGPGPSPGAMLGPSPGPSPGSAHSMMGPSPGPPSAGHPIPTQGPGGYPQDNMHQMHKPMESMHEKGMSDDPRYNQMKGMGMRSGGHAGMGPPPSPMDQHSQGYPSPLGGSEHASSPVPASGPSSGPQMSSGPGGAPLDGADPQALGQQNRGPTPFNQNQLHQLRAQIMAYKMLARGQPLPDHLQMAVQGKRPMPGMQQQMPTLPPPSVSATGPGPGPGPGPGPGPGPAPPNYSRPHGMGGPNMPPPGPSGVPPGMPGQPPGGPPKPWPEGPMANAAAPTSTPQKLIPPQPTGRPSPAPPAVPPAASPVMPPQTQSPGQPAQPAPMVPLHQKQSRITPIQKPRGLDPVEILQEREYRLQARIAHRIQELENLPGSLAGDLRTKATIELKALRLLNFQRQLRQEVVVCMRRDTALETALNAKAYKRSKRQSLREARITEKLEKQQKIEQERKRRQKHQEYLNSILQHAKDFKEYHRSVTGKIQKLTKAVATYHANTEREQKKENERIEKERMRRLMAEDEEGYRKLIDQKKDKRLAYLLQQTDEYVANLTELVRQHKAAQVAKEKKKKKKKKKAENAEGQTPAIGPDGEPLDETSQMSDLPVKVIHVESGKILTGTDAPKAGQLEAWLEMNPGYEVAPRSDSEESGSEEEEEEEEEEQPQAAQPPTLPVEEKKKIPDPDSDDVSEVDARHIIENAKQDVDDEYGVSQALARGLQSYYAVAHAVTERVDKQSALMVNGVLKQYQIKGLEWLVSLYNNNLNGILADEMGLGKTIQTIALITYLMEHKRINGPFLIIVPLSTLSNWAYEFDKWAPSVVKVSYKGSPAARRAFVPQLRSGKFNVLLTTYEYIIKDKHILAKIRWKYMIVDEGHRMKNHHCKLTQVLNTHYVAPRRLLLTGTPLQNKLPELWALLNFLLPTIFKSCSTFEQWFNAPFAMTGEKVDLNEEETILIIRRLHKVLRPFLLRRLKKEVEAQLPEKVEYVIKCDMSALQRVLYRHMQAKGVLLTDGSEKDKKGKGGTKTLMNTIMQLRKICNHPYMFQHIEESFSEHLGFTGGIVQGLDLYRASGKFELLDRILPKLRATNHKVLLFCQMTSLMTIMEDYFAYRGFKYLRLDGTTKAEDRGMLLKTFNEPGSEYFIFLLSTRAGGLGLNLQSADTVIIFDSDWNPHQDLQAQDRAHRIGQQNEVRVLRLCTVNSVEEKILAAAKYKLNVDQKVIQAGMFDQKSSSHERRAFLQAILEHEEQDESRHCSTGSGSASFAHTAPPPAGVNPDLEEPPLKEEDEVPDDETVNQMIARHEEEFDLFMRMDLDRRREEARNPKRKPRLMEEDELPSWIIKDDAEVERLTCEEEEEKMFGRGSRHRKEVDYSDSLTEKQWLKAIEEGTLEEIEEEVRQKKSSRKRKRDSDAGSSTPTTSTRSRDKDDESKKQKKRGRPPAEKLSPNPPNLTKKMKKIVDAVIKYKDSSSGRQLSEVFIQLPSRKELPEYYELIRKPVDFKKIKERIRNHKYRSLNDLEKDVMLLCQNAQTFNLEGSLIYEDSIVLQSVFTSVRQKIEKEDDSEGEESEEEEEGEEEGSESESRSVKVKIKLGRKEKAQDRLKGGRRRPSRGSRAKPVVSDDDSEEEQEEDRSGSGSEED
In short: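 Engineered HT1080 knock-in cells, 2000 cells/well, 6 hrs compound exposure, 37° C/5% CO2, 0.1% DMSO final. Lytic detection: LgBiT 1:100 plus HiBiT substrate 1:50 in lytic buffer, 10 min shake at RT, luminescence read.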

SMARCA2 = SMARCA2 (Homo sapiens, UniProt P51531); experiment: HiBit assay in engineered HT1080 CRISPR knock-in cell, 6 hrs (B series), SMARCA2; format: cell-based; details: 6 hrs incubation; for DC50: read-out: SMARC A2 HT1080 HiBit DC50; for Dmax: HT-1080, HT1080 CRISPR knock-in cells, read-out: SMARC A2 HT1080 HiBit Dmax (%)
Sequence of SMARCA2 (P51531 whole entry): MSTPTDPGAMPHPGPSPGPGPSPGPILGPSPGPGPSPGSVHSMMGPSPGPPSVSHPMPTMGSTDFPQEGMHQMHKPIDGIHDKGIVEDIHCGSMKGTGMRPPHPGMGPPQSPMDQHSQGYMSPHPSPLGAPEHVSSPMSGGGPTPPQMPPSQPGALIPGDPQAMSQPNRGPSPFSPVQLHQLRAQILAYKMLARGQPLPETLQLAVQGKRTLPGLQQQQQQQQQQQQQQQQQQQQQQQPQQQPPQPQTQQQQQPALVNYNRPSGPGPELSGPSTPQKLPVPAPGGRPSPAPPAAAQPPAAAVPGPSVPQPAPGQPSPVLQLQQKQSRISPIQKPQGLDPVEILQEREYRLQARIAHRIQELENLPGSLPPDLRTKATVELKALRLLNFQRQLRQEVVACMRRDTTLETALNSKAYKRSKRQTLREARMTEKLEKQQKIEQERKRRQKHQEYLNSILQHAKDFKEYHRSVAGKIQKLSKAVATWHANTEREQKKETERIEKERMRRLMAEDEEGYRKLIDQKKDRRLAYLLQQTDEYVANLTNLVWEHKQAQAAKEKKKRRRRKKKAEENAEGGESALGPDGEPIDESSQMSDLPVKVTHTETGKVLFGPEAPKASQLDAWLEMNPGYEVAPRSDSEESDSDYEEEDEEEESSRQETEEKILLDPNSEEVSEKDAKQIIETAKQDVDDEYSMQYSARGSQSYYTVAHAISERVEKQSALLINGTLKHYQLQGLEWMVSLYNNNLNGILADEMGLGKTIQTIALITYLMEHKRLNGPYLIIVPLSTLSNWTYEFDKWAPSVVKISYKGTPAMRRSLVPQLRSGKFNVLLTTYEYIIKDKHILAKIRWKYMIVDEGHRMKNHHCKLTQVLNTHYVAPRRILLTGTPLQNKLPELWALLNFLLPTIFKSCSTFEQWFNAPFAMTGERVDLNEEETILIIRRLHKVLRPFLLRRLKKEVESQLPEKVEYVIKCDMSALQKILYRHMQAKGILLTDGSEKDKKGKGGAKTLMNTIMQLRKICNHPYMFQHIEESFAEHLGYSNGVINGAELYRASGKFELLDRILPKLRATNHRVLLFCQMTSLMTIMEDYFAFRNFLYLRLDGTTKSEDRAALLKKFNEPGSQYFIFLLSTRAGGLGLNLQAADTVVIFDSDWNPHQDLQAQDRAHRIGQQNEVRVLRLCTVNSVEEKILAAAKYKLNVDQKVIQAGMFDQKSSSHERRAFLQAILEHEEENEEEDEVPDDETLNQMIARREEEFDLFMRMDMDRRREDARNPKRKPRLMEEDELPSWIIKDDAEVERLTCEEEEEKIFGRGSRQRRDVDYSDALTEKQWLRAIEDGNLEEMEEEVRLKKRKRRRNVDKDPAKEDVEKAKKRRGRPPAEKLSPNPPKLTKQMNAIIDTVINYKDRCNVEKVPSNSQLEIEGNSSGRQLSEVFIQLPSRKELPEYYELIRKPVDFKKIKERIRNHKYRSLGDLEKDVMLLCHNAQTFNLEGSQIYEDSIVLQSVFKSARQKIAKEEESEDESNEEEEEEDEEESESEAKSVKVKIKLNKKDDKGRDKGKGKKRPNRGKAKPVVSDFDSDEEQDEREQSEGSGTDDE
In short: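 Compounds were dispensed first, then HT1080 knock-in cells added and incubated for 6 hrs at 37° C. Next, detection reagent containing LgBiT and lytic substrate was added. Plates were shaken 10 min and centrifuged, and luminescence was measured.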

SMILES	DC50 (SMARCA4; HT1080 CRISPR knock-in cells) [nM]	Dmax (SMARCA4) [%]	DC50 (SMARCA2; HT1080 CRISPR knock-in cells) [nM]	Dmax (SMARCA2) [%]	SMARC A4 HT1080 HiBit Dmax(%) (SMARCA4; HT1080 CRISPR knock-in cells)	SMARC A2 HT1080 HiBit Dmax (%) (SMARCA2; HT1080 CRISPR knock-in cells)
Cc1ncsc1-c1ccc([C@H](C)NC(=O)[C@@H]2C[C@@H](O)CN2C(=O)[C@@H](NC(=O)CCCN2CCC(c3ccc4c(c3)-n3c(nc(=O)c5c(Cl)cccc53)C4(C)C)CC2)C(C)(C)C)cc1 [Compound B45, (2S,4R)-1-((S)-2-(4-(4-(4-chloro-7,7-dimethyl-5-oxo-5,7-dihydroindolo[1,2-a]quinazolin-10-yl)piperidin-1-yl)butanamido)-3,3-dimethylbutanoyl)-4-hydroxy-N-((S)-1-(4-(4-methylthiazol-5-yl)phenyl)ethyl)pyrrolidine-2-carboxamide]	> 1000	< 50	100 to 500	70 to 90		
Cc1ncsc1-c1ccc([C@H](CCCCCn2cc(-c3ccc4c(c3)-n3c(nc(=O)c5c(Cl)cccc53)C4(C)C)cn2)NC(=O)[C@@H]2C[C@@H](O)CN2C(=O)[C@@H](NC(=O)C2(F)CC2)C(C)(C)C)cc1 [Compound B46, (2S,4R)-N-((S)-6-(4-(4-chloro-7,7-dimethyl-5-oxo-5,7-dihydroindolo[1,2-a]quinazolin-10-yl)-1H-pyrazol-1-yl)-1-(4-(4-methylthiazol-5-yl)phenyl)hexyl)-1-((S)-2-(1-fluorocyclopropane-1-carboxamido)-3,3-dimethylbutanoyl)-4-hydroxypyrrolidine-2-carboxamide]	< 100	70 to 90	< 100	70 to 90		
Cc1ncsc1-c1ccc([C@H](C)NC(=O)[C@@H]2C[C@@H](O)CN2C(=O)[C@@H](NC(=O)C2CCC(N3CCC(c4ccc5c(c4)-n4c(nc(=O)c6c(Cl)cccc64)C5(C)C)CC3)CC2)C(C)(C)C)cc1 (stereo partly drawn) [Compound B47, (2S,4R)-1-((S)-2-(4-(4-(4-chloro-7,7-dimethyl-5-oxo-5,7-dihydroindolo[1,2-a]quinazolin-10-yl)piperidin-1-yl)cyclohexane-1-carboxamido)-3,3-dimethylbutanoyl)-4-hydroxy-N-((S)-1-(4-(4-methylthiazol-5-yl)phenyl)ethyl)pyrrolidine-2-carboxamide]	100 to 500	< 50	100 to 500	70 to 90		
Cc1ncsc1-c1ccc([C@H](C)NC(=O)[C@@H]2C[C@@H](O)CN2C(=O)[C@@H](NC(=O)[C@H]2CC[C@H](Cn3cc(-c4ccc5c(c4)C(C)(C)c4nc(=O)c6c(Cl)cccc6n4-5)cn3)CC2)C(C)(C)C)cc1 [Compound B48, (2S,4R)-1-((S)-2-((1r,4S)-4-((4-(4-chloro-7,7-dimethyl-5-oxo-5,7-dihydroindolo[1,2-a]quinazolin-9-yl)-1H-pyrazol-1-yl)methyl)cyclohexane-1-carboxamido)-3,3-dimethylbutanoyl)-4-hydroxy-N—((S)-1-(4-(4-methylthiazol-5-yl)phenyl)ethyl)pyrrolidine-2-carboxamide]	100 to 500	< 50	< 100	70 to 90		
Cc1ncsc1-c1ccc([C@H](C)NC(=O)[C@@H]2C[C@@H](O)CN2C(=O)[C@H](C(C)C)n2cc(CN3CCC(c4ccc5c(c4)-n4c(nc(=O)c6c(Cl)cccc64)C5(C)C)CC3)nn2)cc1 [Compound B49, (2S,4R)-1-((S)-2-(4-((4-(4-chloro-7,7-dimethyl-5-oxo-5,7-dihydroindolo[1,2-a]quinazolin-10-yl)piperidin-1-yl)methyl)-1H-1,2,3-triazol-1-yl)-3-methylbutanoyl)-4-hydroxy-N-((S)-1-(4-(4-methylthiazol-5-yl)phenyl)ethyl)pyrrolidine-2-carboxamide]	> 1000	< 50	< 100	70 to 90		
Cc1ncsc1-c1ccc([C@H](C)NC(=O)[C@@H]2C[C@@H](O)CN2C(=O)[C@@H](NC(=O)CCCCN2CCC(c3ccc4c(c3)-n3c(nc(=O)c5c(Cl)cccc53)C4(C)C)CC2)C(C)(C)C)cc1 [Compound B50, (2S,4R)-1-((S)-2-(5-(4-(4-chloro-7,7-dimethyl-5-oxo-5,7-dihydroindolo[1,2-a]quinazolin-10-yl)piperidin-1-yl)pentanamido)-3,3-dimethylbutanoyl)-4-hydroxy-N-((S)-1-(4-(4-methylthiazol-5-yl)phenyl)ethyl)pyrrolidine-2-carboxamide]	> 1000	< 50	100 to 500	70 to 90		
Cc1ncsc1-c1ccc([C@H](C)NC(=O)[C@@H]2C[C@@H](O)CN2C(=O)[C@@H](n2cc([C@H]3CC[C@H](CN4CCC(c5ccc6c(c5)-n5c(nc(=O)c7c(Cl)cccc75)C6(C)C)CC4)CC3)nn2)C(C)(C)C)cc1 [Compound B51, (2S,4R)-1-((S)-2-(4-((1r,4S)-4-((4-(4-chloro-7,7-dimethyl-5-oxo-5,7-dihydroindolo[1,2-a]quinazolin-10-yl)piperidin-1-yl)methyl)cyclohexyl)-1H-1,2,3-triazol-1-yl)-3,3-dimethylbutanoyl)-4-hydroxy-N-((S)-1-(4-(4-methylthiazol-5-yl)phenyl)ethyl)pyrrolidine-2-carboxamide]	< 100	70 to 90	< 100	> 90		
Cc1ncsc1-c1ccc([C@H](C)NC(=O)[C@@H]2C[C@@H](O)CN2C(=O)[C@@H](c2cc(OCCn3cc(-c4ccc5c(c4)C(C)(C)c4nc(=O)c6c(Cl)cccc6n4-5)cn3)no2)C(C)C)cc1 [Compound B52, (2S,4R)-1-((R)-2-(3-(2-(4-(4-chloro-7,7-dimethyl-5-oxo-5,7-dihydroindolo[1,2-a]quinazolin-9-yl)-1H-pyrazol-1-yl)ethoxy)isoxazol-5-yl)-3-methylbutanoyl)-4-hydroxy-N-((S)-1-(4-(4-methylthiazol-5-yl)phenyl)ethyl)pyrrolidine-2-carboxamide]	> 1000	< 50	< 100	70 to 90		
Cc1ncsc1-c1ccc([C@H](CC(=O)NCC2CCC(N3CCC(c4ccc5c(c4)-n4c(nc(=O)c6c(Cl)cccc64)C5(C)C)CC3)CC2)NC(=O)[C@@H]2C[C@@H](O)CN2C(=O)[C@@H](NC(=O)C2(F)CC2)C(C)(C)C)cc1 (stereo partly drawn) [Compound B53, (2S,4R)-N-((S)-3-(((4-(4-(4-chloro-7,7-dimethyl-5-oxo-5,7-dihydroindolo[1,2-a]quinazolin-10-yl)piperidin-1-yl)cyclohexyl)methyl)amino)-1-(4-(4-methylthiazol-5-yl)phenyl)-3-oxopropyl)-1-((S)-2-(1-fluorocyclopropane-1-carboxamido)-3,3-dimethylbutanoyl)-4-hydroxypyrrolidine-2-carboxamide]	100 to 500	50 to 69	100 to 500	70 to 90		
Cc1ncsc1-c1ccc([C@H](CC(=O)NCC2CCC(N3CCC(c4ccc5c(c4)-n4c(nc(=O)c6c(Cl)cccc64)C5(C)C)CC3)CC2)NC(=O)[C@@H]2C[C@@H](O)CN2C(=O)[C@@H](NC(=O)C2(F)CC2)C(C)(C)C)cc1 (stereo partly drawn) [Compound B54, (2S,4R)-N-((S)-3-(((4-(4-(4-chloro-7,7-dimethyl-5-oxo-5,7-dihydroindolo[1,2-a]quinazolin-10-yl)piperidin-1-yl)cyclohexyl)methyl)amino)-1-(4-(4-methylthiazol-5-yl)phenyl)-3-oxopropyl)-1-((S)-2-(1-fluorocyclopropane-1-carboxamido)-3,3-dimethylbutanoyl)-4-hydroxypyrrolidine-2-carboxamide]	100 to 500		100 to 500		D (D (<50% degradation))	D (D (<50% degradation))
Cc1ncsc1-c1ccc([C@H](CCCCCn2cc(-c3ccc4c(c3)C(C)(C)c3nc(=O)c5c(Cl)cccc5n3-4)cn2)NC(=O)[C@@H]2C[C@@H](O)CN2C(=O)[C@@H](NC(=O)C2(F)CC2)C(C)(C)C)cc1 [Compound B56, (2S,4R)—N—((S)-6-(4-(4-chloro-7,7-dimethyl-5-oxo-5,7-dihydroindolo[1,2-a]quinazolin-9-yl)-1H-pyrazol-1-yl)-1-(4-(4-methylthiazol-5-yl)phenyl)hexyl)-1-((S)-2-(1-fluorocyclopropane-1-carboxamido)-3,3-dimethylbutanoyl)-4-hydroxypyrrolidine-2-carboxamide]	> 1000	< 50	100 to 500	< 50		
Cc1ncsc1-c1ccc([C@H](C)NC(=O)[C@@H]2C[C@@H](O)CN2C(=O)[C@H](C(C)C)n2cc(OCCN3CCC(c4ccc5c(c4)C(C)(C)c4nc(=O)c6c(Cl)cccc6n4-5)CC3)cn2)cc1 [Compound B57, (2S,4R)-1-(2-(4-(2-(4-(4-chloro-7,7-dimethyl-5-oxo-5,7-dihydroindolo[1,2-a]quinazolin-9-yl)piperidin-1-yl)ethoxy)-1H-pyrazol-1-yl)-3-methylbutanoyl)-4-hydroxy-N—((S)-1-(4-(4-methylthiazol-5-yl)phenyl)ethyl)pyrrolidine-2-carboxamide]	501 to 1000	< 50	100 to 500	70 to 90		
Cc1ncsc1-c1ccc([C@H](C)NC(=O)[C@@H]2C[C@@H](O)CN2C(=O)[C@H](C(C)C)n2cc(CCCN3CCC(c4ccc5c(c4)-n4c(nc(=O)c6c(Cl)cccc64)C5(C)C)CC3)nn2)cc1 [Compound B58, (2S,4R)-1-((S)-2-(4-(3-(4-(4-chloro-7,7-dimethyl-5-oxo-5,7-dihydroindolo[1,2-a]quinazolin-10-yl)piperidin-1-yl)propyl)-1H-1,2,3-triazol-1-yl)-3-methylbutanoyl)-4-hydroxy-N-((S)-1-(4-(4-methylthiazol-5-yl)phenyl)ethyl)pyrrolidine-2-carboxamide]	< 100	70 to 90	< 100	> 90		
